Consider 2 compounds from patent US20080119452A1, “METHODS FOR ENHANCING COGNITIVE FUNCTION” (priority 2006, published 2008).

For one assay, the system named is rats. The experiment in a line: Object recognition task (time spent on novel vs familiar object). The class given is in vivo, rat. From the text: Effect of Compounds in Object Recognition Task
Spending more time on the novel than on the familiar object indicates memory for the latter. Vehicle-treated rats spent a mean of 63% of time on the novel object. The means for all of the doses of test articles were numerically higher with values of: 70 and 78% for galantamine, 71 and 75% for a first representative compound of formula IV, and 73 and 81% for a second representative compound of formula IV.
Ennaceur A and Delacour J (1988) A new one-trial test for neurobiological studies of memory in rats. 1: Behavioral data. Behav Brain Res 31: 47-59.

For a further assay, the system named is mouse. The note with it: sub-optimal analgesic dose, cited from earlier work.

Read-outs that look alike come from different tables or passages of the source.

In the case of `COc1ccc2c3c1O[C@H]1C[C@@H](O)C=C[C@@]31CCN(C)C2` [Galantamine, galantamine], the “% Time Novel Object (Mean ± SEM)” value in the assay with rats (0.3 mg/kg p.o., 0.3 mg/kg) turned out to be 70 ± 6%; in the assay with rats (0.3 mg/kg p.o., listed as galantamine, 0.3 mg/kg), 70%; in the assay with rats (1.7 mg/kg p.o., 1.7 mg/kg), 78 ± 5 %; in the assay with rats (1.7 mg/kg p.o., listed as galantamine, 1.7 mg/kg), 78%.
Consider rubiscolin-6, for which the “effect on memory consolidation” value in the assay with mouse (3 nmol/mouse i.c.v.) and in the assay on mouse (100 mg/kg oral administration) was “enhance memory consolidation” each time.
